# “Also recorded” adds a separate entry of the source.
# Tests used:
# [1] = target: T1, SNAP-mGluR2 (Rattus norvegicus, UniProt P31421); test: Photoactivation of SNAP-mGluR2 read out as GIRK current, whole cell patch clamp in HEK293 cells; format: cell-based
# T1 construct: expressed in transfected cells; host or cells: HEK293 / HEK 293T, with co-expressed GIRK channel
# Procedure: Whole cell patch clamp recordings from HEK 293T cells were performed 24-48 hours after transfection as previously described (Farrants et al., 2018). Briefly, voltage clamp recordings at −60 mV were performed in a high potassium (120 mM) solution to enable large inward currents upon receptor activation.
# Unless otherwise noted, cells were incubated with 1-10 μM of PORTL for 45-60 min at 37° C. in the appropriate extracellular recording solution. Labeling efficiency was determined as previously described (Levitz et al., 2017). Illumination was applied to the entire field of view using a CoolLED pE-4000 through a 40× objective. Light intensity in the sample plane was 1-2 mW/mm^2. pClamp software was used for both data acquisition and control of illumination. All drugs were purchased from Tocris and applied using a gravity-driven perfusion system.
# FIG. 3A-3C. Monovalent BGAG12,460 elicits rat SNAP-mGluR2 and human SNAP-mGluR6 GIRK photo-current in HEK293 cells. FIG. 3A. Group II and III mGluRs, like mGluR2 and 6, respectively, couple to GIRK channels in neurons and this system reconstitutes in non-neuronal cell lines, so that SNAP-mGluR2 or 6 coupled to a BGAG photoswitch will be activated by light and induce hyperpolarizing GIRK current. FIG. 3B. Blue (460 nm) light photo-activates BGAG12,460:SNAP-mGluR2 and elicits an inward K+ current from co-expressed GIRK channel in a HEK293 cell voltage clamped at −60 mV with [K+]in=[K+]out=150 mM. FIG. 3C.
# FIG. 4A-4D. Multibranched BGAG12,460 increases potency and sensitivity of SNAP-mGluR2 activation of GIRK channels in HEK293 cells. FIG. 4A. ^4×BGAG12,460 consists of a single BG end for 1:1 attachment to SNAP on each subunit of the mGluR and 4 branches of a 12-PEG linker, with each branch bearing a photoswitchable azobenzene-glutamate (AG). FIG. 4B. […] Dependence of SNAP-mGluR2 photo-activation efficiency, read out as GIRK current, with single, 2-branch and 4-branch BGAG12,460. […]
# [2] = tested on: rd1 mice expressing SNAP-mGluR2 in ON-BCs; test: Line pattern recognition (learned aversive association, iPad displays), SNAP-mGluR2 in ON-BCs; format: in vivo, mouse; conditions: in PBS, trained and tested within a week after intravitreal injection
# Procedure: Modified active avoidance was assayed as previously described^19, using the Coulbourn shuttle box (H10-11M-SC), however, now iPad tablet screens were mounted onto the shuttle cage wall, each displaying one of two images that differed in orientation or distance between two lines but were otherwise of equal shape, size, and light intensity. The aversive image side was paired with a foot shock of 0.7 mA. Upon recall the light patterns were reversed to avoid a bias for location and time spent on each side was recorded. Adaptation was tested by dimming or brightening the display to different intensities.
# As shown above, ^4×BGAG12,460:SNAP-mGluR2 in either RGCs or ON-BCs confers high sensitivity light perception. It was asked whether ^4×BGAG12,460:SNAP-mGluR2 would support patterned vision. The ability of treated and untreated rd1 mice to discriminate between two different line patterns in a learned negative association task was tested. The task is carried out in a 2-chamber arena, where the floor in each chamber is conductive and can apply an independent aversive mild foot shock. […] The mouse was trained for two days, during which a mild foot shock was given in one of the chambers. The line pattern associated with the foot shock was assigned randomly initially but then kept consistent for that animal throughout the 2 days of training. […]
# T1 sequence (P31421 with tags, fused parts or gaps): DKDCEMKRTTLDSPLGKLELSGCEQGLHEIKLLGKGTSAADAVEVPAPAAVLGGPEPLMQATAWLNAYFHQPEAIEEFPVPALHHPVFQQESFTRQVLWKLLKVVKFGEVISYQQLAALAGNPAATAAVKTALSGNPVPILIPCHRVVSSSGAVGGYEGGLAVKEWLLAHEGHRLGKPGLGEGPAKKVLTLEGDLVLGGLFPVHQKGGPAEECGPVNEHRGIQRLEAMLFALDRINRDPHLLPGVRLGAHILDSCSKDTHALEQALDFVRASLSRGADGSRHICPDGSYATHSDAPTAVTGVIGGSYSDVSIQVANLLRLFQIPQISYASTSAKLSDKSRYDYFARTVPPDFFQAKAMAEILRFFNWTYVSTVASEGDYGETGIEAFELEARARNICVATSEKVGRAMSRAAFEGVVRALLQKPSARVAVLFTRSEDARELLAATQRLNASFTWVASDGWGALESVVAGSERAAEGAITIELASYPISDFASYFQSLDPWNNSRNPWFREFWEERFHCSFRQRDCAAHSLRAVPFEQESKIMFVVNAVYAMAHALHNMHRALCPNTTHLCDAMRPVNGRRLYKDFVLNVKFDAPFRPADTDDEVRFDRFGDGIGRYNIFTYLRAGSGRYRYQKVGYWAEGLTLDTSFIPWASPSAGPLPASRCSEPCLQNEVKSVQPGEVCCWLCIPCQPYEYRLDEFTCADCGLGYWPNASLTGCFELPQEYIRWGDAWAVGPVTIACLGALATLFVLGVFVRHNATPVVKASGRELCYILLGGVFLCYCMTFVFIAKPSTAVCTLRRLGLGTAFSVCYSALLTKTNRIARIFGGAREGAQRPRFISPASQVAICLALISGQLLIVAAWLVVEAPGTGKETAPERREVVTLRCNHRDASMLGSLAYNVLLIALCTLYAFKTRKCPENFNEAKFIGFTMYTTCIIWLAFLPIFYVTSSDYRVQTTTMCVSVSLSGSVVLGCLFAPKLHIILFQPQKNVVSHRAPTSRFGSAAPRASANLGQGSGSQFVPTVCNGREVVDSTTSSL
structure (smiles),measurement,setting,value
"Nc1nc(OCc2ccc(CNC(=O)CCCC(=O)N[C@H](CCC(=O)N[C@H](CCC(=O)NCCOCCOCCOCCOCCOCCOCCOCCOCCOCCOCCOCCOCCC(=O)NCCNc3ccc(/N=N/c4ccc(NC(=O)CCC[C@@H](C[C@H](N)C(=O)O)C(=O)O)cc4)cc3)C(=O)NCCOCCOCCOCCOCCOCCOCCOCCOCCOCCOCCOCCOCCC(=O)NCCNc3ccc(/N=N/c4ccc(NC(=O)CCC[C@@H](C[C@H](N)C(=O)O)C(=O)O)cc4)cc3)C(=O)N[C@H](CCC(=O)NCCOCCOCCOCCOCCOCCOCCOCCOCCOCCOCCOCCOCCC(=O)NCCNc3ccc(/N=N/c4ccc(NC(=O)CCC[C@@H](C[C@H](N)C(=O)O)C(=O)O)cc4)cc3)C(=O)NCCOCCOCCOCCOCCOCCOCCOCCOCCOCCOCCOCCOCCC(=O)NCCNc3ccc(/N=N/c4ccc(NC(=O)CCC[C@@H](C[C@H](N)C(=O)O)C(=O)O)cc4)cc3)cc2)c2nc[nH]c2n1 [^4×BGAG12,460]",visible light photoactivation of SNAP-mGluR2,"[1]; 460 nm light, GIRK current, HEK293 cells",near-complete photoactivation of mGluR2; also recorded: close to the maximum activation that is achieved with saturating glutamate
same,increase in sensitivity (shift of mid-point of the intensity-response curve),"[1]; cultured HEK293 cells, versus BGAG12,460",~5 fold
same,"line pattern recognition, parallel lines spaced 1 versus 6 cm",[2],spent also more time on the side of the non-aversive visual display

# Source: patent publication US12076329B2, “Compositions and methods for enhancing visual function” (The Regents of the University of California, priority 2020, dated 2024)
